Data reported in ChEMBL document CHEMBL3132858, “6-Alkyl-, 6-aryl- or 6-hetaryl-7-deazapurine ribonucleosides as inhibitors of human or MTB adenosine kinase and potential antimycobacterial agents” (Medchemcomm, 2013).

Test system: Mycobacterium tuberculosis
Assay: Antimycobacterial activity against Mycobacterium bovis BCG assessed as inhibition of microbial growth after 120 hrs by MTT assay
Format: functional, organism-based
Conditions: variant bovis BCG

Structure (SMILES) | IC50
OC[C@H]1O[C@@H](n2cc(Cl)c3c(-c4cccs4)ncnc32)[C@H](O)[C@@H]1O | 96.4 µM
CCCCCCCCCCCCCCCCCCOP(=O)(O)OC[C@H]1O[C@@H](n2ccc3c(-c4ccoc4)ncnc32)[C@H](O)[C@@H]1O | 56.6 µM
OC[C@H]1O[C@@H](n2cc(F)c3c(-c4ccoc4)ncnc32)[C@H](O)[C@@H]1O | 91.2 µM
OC[C@H]1O[C@@H](n2ccc3c(-c4cccnc4)ncnc32)[C@H](O)[C@@H]1O | > 100 µM
OC[C@H]1O[C@@H](n2ccc3c(-c4cccs4)ncnc32)[C@H](O)[C@@H]1O | > 100 µM
OC[C@H]1O[C@@H](n2ccc3c(-c4cccc5c4sc4ccccc45)ncnc32)[C@H](O)[C@@H]1O | > 100 µM
OC[C@H]1O[C@@H](n2ccc3c(-c4cc[nH]c4)ncnc32)[C@H](O)[C@@H]1O | 98.2 µM
OCc1ncnc2c1ccn2[C@@H]1O[C@H](CO)[C@@H](O)[C@H]1O | 32.6 µM
OC[C@H]1O[C@@H](n2cc(F)c3c(-c4c[nH]cn4)ncnc32)[C@H](O)[C@@H]1O | 11.7 µM
OC[C@H]1O[C@@H](n2cc(F)c3c(-c4cc[nH]c4)ncnc32)[C@H](O)[C@@H]1O | > 100 µM
COc1ccc(-c2ncnc3c2ccn3[C@@H]2O[C@H](CO)[C@@H](O)[C@H]2O)cc1 | 56.9 µM
OC[C@H]1O[C@@H](n2cc(F)c3c(-c4nccs4)ncnc32)[C@H](O)[C@@H]1O | 69 µM
OC[C@H]1O[C@@H](n2ccc3c(-c4ccc(F)cc4)ncnc32)[C@H](O)[C@@H]1O | 93.8 µM
OC[C@H]1O[C@@H](n2cc(F)c3c(-c4ccccc4)ncnc32)[C@H](O)[C@@H]1O | 74.8 µM
OC[C@H]1O[C@@H](n2cc(Cl)c3c(-c4ccccc4)ncnc32)[C@H](O)[C@@H]1O | > 100 µM
OC[C@H]1O[C@@H](n2ccc3c(-c4cc5ccccc5o4)ncnc32)[C@H](O)[C@@H]1O | > 100 µM
OC[C@H]1O[C@@H](n2cc(F)c3c(-c4cccs4)ncnc32)[C@H](O)[C@@H]1O | > 100 µM
CCCCCCCCCCCCCCCCCCOP(=O)(O)OC[C@H]1O[C@@H](n2ccc3c(-c4ccccc4)ncnc32)[C@H](O)[C@@H]1O | > 100 µM
OC[C@H]1O[C@@H](n2ccc3c(-c4ccccn4)ncnc32)[C@H](O)[C@@H]1O | 38.2 µM
OC[C@H]1O[C@@H](n2cc(F)c3c(-c4ccsc4)ncnc32)[C@H](O)[C@@H]1O | > 100 µM
OC[C@H]1O[C@@H](n2ccc3c(-c4ccco4)ncnc32)[C@H](O)[C@@H]1O | > 100 µM
OC[C@H]1O[C@@H](n2ccc3c(-c4ccsc4)ncnc32)[C@H](O)[C@@H]1O | 81 µM
OC[C@H]1O[C@@H](n2ccc3c(-c4cc5ccccc5[nH]4)ncnc32)[C@H](O)[C@@H]1O | > 100 µM

Structure (SMILES) | IC50
CCc1ncnc2c1ccn2[C@@H]1O[C@H](CO)[C@@H](O)[C@H]1O | 88.8 µM
OC[C@H]1O[C@@H](n2cc(Cl)c3c(-c4ccoc4)ncnc32)[C@H](O)[C@@H]1O | 97.1 µM
OC[C@H]1O[C@@H](n2ccc3c(-c4ccn[nH]4)ncnc32)[C@H](O)[C@@H]1O | 91.1 µM
OC[C@H]1O[C@@H](n2ccc3c(-c4ccc[se]4)ncnc32)[C@H](O)[C@@H]1O | > 100 µM
CCCCCCCCCCCCCCCCCCOP(=O)(O)OC[C@H]1O[C@@H](n2ccc3c(-c4ccsc4)ncnc32)[C@H](O)[C@@H]1O | 82.8 µM
OC[C@H]1O[C@@H](n2ccc3c(-c4cccc5c4Oc4ccccc4S5)ncnc32)[C@H](O)[C@@H]1O | > 100 µM
OC[C@H]1O[C@@H](n2ccc3c(-c4c[nH]cn4)ncnc32)[C@H](O)[C@@H]1O | 15.6 µM
OC[C@H]1O[C@@H](n2cc(Cl)c3c(-c4ccco4)ncnc32)[C@H](O)[C@@H]1O | 89.2 µM
OC[C@H]1O[C@@H](n2ccc3c(Cc4ccccc4)ncnc32)[C@H](O)[C@@H]1O | > 100 µM
OC[C@H]1O[C@@H](n2ccc3c(-c4ccc[nH]4)ncnc32)[C@H](O)[C@@H]1O | 56.4 µM
OC[C@H]1O[C@@H](n2ccc3c(-c4cc5ccccc5s4)ncnc32)[C@H](O)[C@@H]1O | > 100 µM
OC[C@H]1O[C@@H](n2ccc3c(-c4cccc5c4oc4ccccc45)ncnc32)[C@H](O)[C@@H]1O | > 100 µM
CCCCCCCCCCCCCCCCCCOP(=O)(O)OC[C@H]1O[C@@H](n2ccc3c(-c4ccco4)ncnc32)[C@H](O)[C@@H]1O | > 100 µM
CCCCCCCCCCCCCCCCCCOP(=O)(O)OC[C@H]1O[C@@H](n2ccc3c(-c4cc5ccccc5o4)ncnc32)[C@H](O)[C@@H]1O | 93.4 µM
OC[C@H]1O[C@@H](n2cc(F)c3c(-c4ccco4)ncnc32)[C@H](O)[C@@H]1O | 73.2 µM
OC[C@H]1O[C@@H](n2ccc3c(-c4ccoc4)ncnc32)[C@H](O)[C@@H]1O | 83.7 µM
OC[C@H]1O[C@@H](n2ccc3c(-c4ccccc4)ncnc32)[C@H](O)[C@@H]1O | 75.2 µM
OC[C@H]1O[C@@H](n2cc(Cl)c3c(-c4ccsc4)ncnc32)[C@H](O)[C@@H]1O | 99.6 µM
OC[C@H]1O[C@@H](n2ccc3c(-c4nccs4)ncnc32)[C@H](O)[C@@H]1O | 80.5 µM
OC[C@H]1O[C@@H](n2cc(F)c3c(-c4ccc[nH]4)ncnc32)[C@H](O)[C@@H]1O | 45.8 µM
OC[C@H]1O[C@@H](n2cc(Cl)c3c(-c4ccc(F)cc4)ncnc32)[C@H](O)[C@@H]1O | 89.6 µM
OC[C@H]1O[C@@H](n2ccc3c(-c4cn[nH]c4)ncnc32)[C@H](O)[C@@H]1O | > 100 µM
